Test results from patent US20100144003A1, “INDUCTION OF MICROBIAL SECONDARY METABOLITES” (AQUAPHARM BIO-DISCOVERY LIMITED, priority 2007, published 2010).

System: Gram-positive bacterial strains
Experiment: activity against Gram-positive bacterial strains
Type: cell-based
Conditions: compound produced by AQP4511 in PDY medium supplemented with 0.5 mM NaNO3
Method: A Streptomyces sp. strain AQP4511 produced a red orange compound, which has a naphthoquinone structure, in a PDY medium supplemented with 0.5 mM NaNO3.

With COc1cc(O)c2c(c1)C(=O)C1=C(C2=O)C(OC(C)=O)C(O)C(C)O1 (stereo not shown) [Gunacin] the “activity against most of Gram-positive bacterial strains” value was “very strong activity”.
